Key:
Assay in all cases: kinase panel
Format in all cases: biochemical
[1] = target: HIPK1(h) (Homo sapiens, UniProt Q86Z02)
Procedure, shortened: (§1)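 % inhibition read-out; kinome panel of 231 kinases; one analogue run on a selected 98-kinase subset only.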

[2] = target: ErbB4(h) (Homo sapiens, UniProt Q15303)
Procedure, shortened: as §1

[3] = target: T1, IRAK4(h) (Homo sapiens, UniProt Q9NWZ3)
T1 sequence (Q9NWZ3 1-460): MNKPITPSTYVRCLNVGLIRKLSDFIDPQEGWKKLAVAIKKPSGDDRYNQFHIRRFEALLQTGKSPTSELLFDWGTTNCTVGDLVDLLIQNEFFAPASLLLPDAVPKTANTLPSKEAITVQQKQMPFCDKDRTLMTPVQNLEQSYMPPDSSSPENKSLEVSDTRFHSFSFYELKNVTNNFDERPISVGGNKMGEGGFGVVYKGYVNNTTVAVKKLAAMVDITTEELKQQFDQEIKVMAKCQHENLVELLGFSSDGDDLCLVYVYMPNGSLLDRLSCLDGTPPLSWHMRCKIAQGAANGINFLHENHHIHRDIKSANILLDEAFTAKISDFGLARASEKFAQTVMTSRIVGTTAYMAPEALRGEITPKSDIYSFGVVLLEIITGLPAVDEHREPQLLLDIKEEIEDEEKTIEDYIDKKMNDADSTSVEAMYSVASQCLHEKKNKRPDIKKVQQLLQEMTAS
Procedure, shortened: as §1

[4] = target: T2, ARK5(h) (Homo sapiens, UniProt O60285)
T2 sequence (O60285 1-661): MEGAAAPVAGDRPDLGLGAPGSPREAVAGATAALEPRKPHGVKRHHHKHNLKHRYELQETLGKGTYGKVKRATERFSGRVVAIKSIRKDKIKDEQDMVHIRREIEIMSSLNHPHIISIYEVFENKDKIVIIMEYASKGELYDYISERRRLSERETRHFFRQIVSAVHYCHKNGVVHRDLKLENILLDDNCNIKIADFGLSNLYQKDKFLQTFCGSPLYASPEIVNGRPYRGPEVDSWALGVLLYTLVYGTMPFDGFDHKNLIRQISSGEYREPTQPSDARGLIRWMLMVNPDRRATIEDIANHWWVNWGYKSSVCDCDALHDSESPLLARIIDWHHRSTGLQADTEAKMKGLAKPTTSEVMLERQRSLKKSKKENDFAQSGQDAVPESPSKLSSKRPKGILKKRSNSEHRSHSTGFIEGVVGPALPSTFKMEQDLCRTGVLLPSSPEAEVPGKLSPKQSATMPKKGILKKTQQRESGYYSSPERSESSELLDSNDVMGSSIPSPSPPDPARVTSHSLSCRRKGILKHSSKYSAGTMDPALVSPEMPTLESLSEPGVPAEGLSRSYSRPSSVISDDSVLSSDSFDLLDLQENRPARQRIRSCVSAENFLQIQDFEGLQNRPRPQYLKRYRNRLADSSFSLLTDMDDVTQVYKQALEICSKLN
Procedure, shortened: as §1

[5] = target: T3, CHK1(h) (Homo sapiens, UniProt O14757)
T3 sequence (O14757 1-476): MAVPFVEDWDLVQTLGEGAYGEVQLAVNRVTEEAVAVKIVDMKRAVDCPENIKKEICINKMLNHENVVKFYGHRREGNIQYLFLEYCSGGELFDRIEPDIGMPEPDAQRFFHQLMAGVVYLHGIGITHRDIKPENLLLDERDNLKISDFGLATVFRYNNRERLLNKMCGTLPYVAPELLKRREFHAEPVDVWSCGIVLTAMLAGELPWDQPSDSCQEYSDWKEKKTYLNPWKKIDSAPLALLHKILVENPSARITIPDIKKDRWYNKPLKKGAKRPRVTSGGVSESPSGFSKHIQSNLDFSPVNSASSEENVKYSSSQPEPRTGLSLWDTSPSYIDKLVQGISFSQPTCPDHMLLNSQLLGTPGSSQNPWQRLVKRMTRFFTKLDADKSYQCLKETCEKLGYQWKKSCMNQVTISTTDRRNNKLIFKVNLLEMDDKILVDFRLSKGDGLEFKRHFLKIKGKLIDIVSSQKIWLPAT
Procedure, shortened: as §1

[6] = target: Syk(h) (Homo sapiens, UniProt P43405)
Procedure, shortened: as §1

[7] = target: Flt4(h) (Homo sapiens, UniProt P35916)
Procedure, shortened: as §1

[8] = target: T4, ZAP-70(h) (Homo sapiens, UniProt P43403)
T4 sequence (P43403 1-619): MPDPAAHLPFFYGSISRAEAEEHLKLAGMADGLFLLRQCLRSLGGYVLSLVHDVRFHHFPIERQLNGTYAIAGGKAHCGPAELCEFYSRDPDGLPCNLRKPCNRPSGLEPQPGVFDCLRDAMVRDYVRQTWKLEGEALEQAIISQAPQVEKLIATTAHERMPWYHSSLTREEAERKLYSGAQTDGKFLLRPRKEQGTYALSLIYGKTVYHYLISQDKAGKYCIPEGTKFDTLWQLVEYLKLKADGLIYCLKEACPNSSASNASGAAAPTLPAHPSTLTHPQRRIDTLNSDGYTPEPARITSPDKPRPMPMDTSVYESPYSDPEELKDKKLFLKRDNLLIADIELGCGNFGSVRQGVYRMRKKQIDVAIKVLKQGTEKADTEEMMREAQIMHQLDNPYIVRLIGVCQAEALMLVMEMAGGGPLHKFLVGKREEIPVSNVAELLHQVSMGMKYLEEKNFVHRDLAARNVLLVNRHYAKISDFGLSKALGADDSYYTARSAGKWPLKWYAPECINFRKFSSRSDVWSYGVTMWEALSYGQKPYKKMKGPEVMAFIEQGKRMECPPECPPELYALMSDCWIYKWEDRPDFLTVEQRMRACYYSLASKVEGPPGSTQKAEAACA
Procedure, shortened: as §1

[9] = target: CDK9/cyclin T1(h) (Homo sapiens, UniProt P50750)
Procedure, shortened: as §1

[10] = target: IRAK1(h) (Homo sapiens, UniProt P51617)
Procedure, shortened: as §1

[11] = target: ACK1(h) (Homo sapiens, UniProt Q07912)
Procedure, shortened: as §1

CDK9/cyclin T1(h), sequence (P50750 whole entry): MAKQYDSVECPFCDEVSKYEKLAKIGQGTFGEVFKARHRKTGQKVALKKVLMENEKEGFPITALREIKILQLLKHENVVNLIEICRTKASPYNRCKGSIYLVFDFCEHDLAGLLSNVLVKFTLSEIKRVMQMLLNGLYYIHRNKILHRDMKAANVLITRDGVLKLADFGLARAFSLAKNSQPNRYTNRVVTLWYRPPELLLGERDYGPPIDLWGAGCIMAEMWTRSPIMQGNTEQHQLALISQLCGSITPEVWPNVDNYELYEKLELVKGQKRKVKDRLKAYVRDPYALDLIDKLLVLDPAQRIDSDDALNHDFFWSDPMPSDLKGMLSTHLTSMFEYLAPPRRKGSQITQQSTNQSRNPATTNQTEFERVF
CDK9/cyclin T1(h), sequence (O60563 whole entry partner): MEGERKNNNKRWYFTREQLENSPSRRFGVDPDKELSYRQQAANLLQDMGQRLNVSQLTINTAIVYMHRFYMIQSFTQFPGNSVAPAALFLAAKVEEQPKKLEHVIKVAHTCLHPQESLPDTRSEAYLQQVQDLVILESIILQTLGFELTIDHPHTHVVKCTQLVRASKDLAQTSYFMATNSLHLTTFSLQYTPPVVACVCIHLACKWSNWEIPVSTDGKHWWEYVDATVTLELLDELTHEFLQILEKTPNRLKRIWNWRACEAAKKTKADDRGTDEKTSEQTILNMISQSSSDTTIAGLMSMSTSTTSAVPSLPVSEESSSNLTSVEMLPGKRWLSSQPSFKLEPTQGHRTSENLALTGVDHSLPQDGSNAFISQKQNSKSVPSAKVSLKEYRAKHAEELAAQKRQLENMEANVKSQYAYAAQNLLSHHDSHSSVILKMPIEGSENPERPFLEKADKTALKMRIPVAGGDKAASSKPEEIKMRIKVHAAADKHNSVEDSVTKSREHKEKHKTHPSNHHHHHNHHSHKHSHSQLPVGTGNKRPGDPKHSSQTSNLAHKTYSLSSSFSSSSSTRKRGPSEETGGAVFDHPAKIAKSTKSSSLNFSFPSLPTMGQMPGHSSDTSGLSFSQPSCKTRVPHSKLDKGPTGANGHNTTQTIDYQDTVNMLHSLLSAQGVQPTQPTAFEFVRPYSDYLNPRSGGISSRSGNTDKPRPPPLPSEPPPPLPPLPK
Flt4(h), sequence (P35916 25-1363): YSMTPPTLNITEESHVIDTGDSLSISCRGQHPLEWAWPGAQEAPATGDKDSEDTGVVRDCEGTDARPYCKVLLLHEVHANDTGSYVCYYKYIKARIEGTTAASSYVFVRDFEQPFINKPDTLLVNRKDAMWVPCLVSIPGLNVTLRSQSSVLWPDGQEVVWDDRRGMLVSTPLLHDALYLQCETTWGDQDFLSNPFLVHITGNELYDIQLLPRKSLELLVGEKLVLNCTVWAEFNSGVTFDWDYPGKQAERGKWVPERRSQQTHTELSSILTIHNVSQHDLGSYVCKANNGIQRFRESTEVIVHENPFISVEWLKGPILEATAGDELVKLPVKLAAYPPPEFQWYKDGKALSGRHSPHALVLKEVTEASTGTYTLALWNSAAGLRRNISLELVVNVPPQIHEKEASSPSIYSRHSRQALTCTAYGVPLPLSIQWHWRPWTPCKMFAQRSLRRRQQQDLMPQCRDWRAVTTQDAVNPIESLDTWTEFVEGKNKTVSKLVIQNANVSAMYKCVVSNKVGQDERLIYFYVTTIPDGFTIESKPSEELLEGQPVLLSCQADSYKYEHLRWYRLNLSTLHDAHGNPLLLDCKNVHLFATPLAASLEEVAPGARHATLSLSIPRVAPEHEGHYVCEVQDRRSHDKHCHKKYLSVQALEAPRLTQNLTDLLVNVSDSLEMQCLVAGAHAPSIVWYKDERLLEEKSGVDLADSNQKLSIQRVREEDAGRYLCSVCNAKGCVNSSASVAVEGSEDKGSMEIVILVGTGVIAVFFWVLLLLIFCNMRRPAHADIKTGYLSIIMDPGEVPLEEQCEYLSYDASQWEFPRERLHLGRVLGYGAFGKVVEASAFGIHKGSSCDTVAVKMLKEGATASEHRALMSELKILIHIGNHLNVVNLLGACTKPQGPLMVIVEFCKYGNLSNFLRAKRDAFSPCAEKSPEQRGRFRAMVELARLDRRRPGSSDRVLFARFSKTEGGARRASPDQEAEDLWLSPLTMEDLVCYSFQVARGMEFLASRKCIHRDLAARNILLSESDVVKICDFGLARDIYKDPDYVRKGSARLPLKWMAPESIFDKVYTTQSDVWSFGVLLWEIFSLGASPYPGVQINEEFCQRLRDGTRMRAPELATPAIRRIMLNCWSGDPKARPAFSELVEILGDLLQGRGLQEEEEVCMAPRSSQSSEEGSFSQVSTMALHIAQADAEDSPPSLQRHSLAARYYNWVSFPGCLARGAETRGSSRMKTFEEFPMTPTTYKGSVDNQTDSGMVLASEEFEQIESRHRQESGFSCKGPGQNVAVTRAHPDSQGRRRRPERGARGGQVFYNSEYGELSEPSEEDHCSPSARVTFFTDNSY
IRAK1(h), sequence (P51617 whole entry): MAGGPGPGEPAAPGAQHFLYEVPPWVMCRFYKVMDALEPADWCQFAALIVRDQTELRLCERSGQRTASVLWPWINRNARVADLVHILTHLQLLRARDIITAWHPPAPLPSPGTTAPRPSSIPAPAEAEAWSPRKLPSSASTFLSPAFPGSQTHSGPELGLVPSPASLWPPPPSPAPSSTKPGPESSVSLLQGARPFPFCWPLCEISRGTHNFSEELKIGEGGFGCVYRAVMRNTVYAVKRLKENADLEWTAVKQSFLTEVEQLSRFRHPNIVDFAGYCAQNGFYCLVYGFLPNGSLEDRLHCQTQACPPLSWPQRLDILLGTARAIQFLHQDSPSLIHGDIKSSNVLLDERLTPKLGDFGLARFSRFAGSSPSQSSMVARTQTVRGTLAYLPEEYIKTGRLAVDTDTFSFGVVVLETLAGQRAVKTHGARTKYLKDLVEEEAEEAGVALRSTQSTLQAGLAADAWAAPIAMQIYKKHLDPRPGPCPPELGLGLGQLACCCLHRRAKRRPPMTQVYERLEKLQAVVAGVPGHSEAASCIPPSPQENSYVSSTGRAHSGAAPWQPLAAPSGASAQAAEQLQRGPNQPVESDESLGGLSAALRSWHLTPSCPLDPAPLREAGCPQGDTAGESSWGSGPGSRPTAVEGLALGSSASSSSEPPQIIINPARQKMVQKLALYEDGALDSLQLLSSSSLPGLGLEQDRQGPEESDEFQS
ErbB4(h), sequence (Q15303 26-1308): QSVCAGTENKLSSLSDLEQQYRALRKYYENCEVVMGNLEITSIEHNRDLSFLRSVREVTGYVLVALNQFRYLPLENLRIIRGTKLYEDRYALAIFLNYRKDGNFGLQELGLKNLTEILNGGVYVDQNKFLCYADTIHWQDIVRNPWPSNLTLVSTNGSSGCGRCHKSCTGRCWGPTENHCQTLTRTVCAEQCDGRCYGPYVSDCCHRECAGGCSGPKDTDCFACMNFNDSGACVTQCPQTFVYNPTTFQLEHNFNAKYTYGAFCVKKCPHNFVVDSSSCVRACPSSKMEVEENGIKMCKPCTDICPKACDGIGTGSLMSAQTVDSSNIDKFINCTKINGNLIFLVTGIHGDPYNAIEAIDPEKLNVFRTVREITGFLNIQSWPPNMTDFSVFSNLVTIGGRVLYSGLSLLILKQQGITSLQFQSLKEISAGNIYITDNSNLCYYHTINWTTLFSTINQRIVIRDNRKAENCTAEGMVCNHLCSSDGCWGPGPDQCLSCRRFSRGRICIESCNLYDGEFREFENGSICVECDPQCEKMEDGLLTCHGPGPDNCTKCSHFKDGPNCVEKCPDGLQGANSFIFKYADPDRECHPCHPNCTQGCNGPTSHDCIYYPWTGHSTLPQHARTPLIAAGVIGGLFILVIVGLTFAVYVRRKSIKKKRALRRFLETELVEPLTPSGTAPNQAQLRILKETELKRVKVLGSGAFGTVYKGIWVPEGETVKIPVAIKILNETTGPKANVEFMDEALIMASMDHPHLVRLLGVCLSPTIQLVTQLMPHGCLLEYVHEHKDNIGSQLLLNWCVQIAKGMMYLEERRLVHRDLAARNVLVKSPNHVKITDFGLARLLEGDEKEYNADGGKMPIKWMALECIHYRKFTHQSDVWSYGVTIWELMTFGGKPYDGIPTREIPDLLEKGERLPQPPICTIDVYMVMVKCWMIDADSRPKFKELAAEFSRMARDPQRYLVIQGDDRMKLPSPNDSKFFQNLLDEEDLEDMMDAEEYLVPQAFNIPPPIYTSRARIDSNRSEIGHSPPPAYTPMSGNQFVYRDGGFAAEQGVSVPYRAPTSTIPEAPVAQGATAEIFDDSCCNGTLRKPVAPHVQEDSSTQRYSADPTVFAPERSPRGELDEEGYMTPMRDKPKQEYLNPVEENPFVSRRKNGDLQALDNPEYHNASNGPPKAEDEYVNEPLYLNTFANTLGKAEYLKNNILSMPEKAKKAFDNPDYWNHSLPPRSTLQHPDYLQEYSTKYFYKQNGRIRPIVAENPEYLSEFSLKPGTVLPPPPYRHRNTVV

inhibition at 1 µM [1] [%]	inhibition at 1 µM [2] [%]	inhibition at 1 µM [3] [%]	inhibition at 1 µM [4] [%]	inhibition at 1 µM [5] [%]	inhibition at 1 µM [6] [%]	inhibition at 1 µM [7] [%]	inhibition at 1 µM [8] [%]	inhibition at 1 µM [9] [%]	inhibition at 1 µM [10] [%]	inhibition at 1 µM [11] [%]	SMILES
-11	14	3	33	-2	32	63	-27	98	42	41	Nc1n[nH]c2ccc(-c3ccnc4[nH]c(-c5cccc(OCc6ccccc6)c5)cc34)cc12 [Compound 5r [SU1261]]
5	-5	-8	3	-9	25	43	-22	99	37	17	Nc1n[nH]c2ccc(-c3ccnc4[nH]c(-c5ccnc(OCc6ccccc6)c5)cc34)cc12 [Compound 6g [SU1349]]
14	20	25	87	-2	77	97	-8	98	89	83	Nc1n[nH]c2ccc(-c3ccnc4[nH]c(-c5ccccc5)cc34)cc12 [Compound 4]

Reference: paper PMC11314561, “Design and Synthesis of Novel Aminoindazole-pyrrolo[2,3-b]pyridine Inhibitors of IKKα That Selectively Perturb Cellular Non-Canonical NF-κB Signalling” (Molecules, 2024)
